Source: article PMC5910040, “An Antarctic Extreme Halophile and Its Polyextremophilic Enzyme: Effects of Perchlorate Salts” (Astrobiology, 2018)
Several values for one entry are separate records, joined by “and”; a condition that tells them apart may be missing. Equal entries are not always repeated. Entries after “also recorded” stand apart in the source; their conditions may differ.

Legend:
[1] = system: Methanobacterium articum M2 VKM B-2372; parameters: method as in Shcherbakova et al., 2015; conditions: 9.8 mM NaClO4; ref Shcherbakova et al., 2015; cited from earlier work
[2] = system: Halorubrum lacusprofundi; assay: Anaerobic growth assay of Halorubrum lacusprofundi; assay type: cell-based; conditions: 40 mM (0.04 M) perchlorate, dark, no oxygen, 8 days
Experimental: (§1) For aerobic growth, cultures of halophiles were shaken in the light in test tubes at 42°C in CM^+ for Halobacterium sp. NRC-1 and at 37°C in ATCC 1682 media for H. lacusprofundi (Berquist et al., [2007]), adjusted to the desired concentration of NaClO4, MgCl2, and Mg(ClO4)2. For anaerobic growth, cultures were grown in the dark without shaking, essentially as described previously (Oren et al., [2014]). OD600 was recorded with a Spectronic 200 (ThermoFisher Scientific, Waltham, MA) test tube reader. Growth rates were calculated by using the slope of a line of regression calculated from early to mid-log phase.

[3] = system: Halobacterium sp. NRC-1; assay: Anaerobic growth assay of Halobacterium sp. NRC-1; assay type: cell-based; conditions: 40 mM NaClO4, dark, no oxygen, 8 days
Experimental: as §1

[4] = system: Methanobacterium veterum MK4 VKM B-2440; parameters: method as in Shcherbakova et al., 2015; conditions: 9.8 mM NaClO4; ref Shcherbakova et al., 2015; cited from earlier work
[5] = molecular target: T1, H. lacusprofundi β-galactosidase enzyme (Halorubrum lacusprofundi, UniProt B9LW38); assay: Steady-state kinetic inhibition of purified β-galactosidase (ONPG); assay type: biochemical; conditions: for type of inhibition: Lineweaver-Burk / Dixon plots
T1 construct: made in house; host or cells: Halobacterium sp; NRC-1 (pRK42)
T1 sequence (B9LW38 1-700): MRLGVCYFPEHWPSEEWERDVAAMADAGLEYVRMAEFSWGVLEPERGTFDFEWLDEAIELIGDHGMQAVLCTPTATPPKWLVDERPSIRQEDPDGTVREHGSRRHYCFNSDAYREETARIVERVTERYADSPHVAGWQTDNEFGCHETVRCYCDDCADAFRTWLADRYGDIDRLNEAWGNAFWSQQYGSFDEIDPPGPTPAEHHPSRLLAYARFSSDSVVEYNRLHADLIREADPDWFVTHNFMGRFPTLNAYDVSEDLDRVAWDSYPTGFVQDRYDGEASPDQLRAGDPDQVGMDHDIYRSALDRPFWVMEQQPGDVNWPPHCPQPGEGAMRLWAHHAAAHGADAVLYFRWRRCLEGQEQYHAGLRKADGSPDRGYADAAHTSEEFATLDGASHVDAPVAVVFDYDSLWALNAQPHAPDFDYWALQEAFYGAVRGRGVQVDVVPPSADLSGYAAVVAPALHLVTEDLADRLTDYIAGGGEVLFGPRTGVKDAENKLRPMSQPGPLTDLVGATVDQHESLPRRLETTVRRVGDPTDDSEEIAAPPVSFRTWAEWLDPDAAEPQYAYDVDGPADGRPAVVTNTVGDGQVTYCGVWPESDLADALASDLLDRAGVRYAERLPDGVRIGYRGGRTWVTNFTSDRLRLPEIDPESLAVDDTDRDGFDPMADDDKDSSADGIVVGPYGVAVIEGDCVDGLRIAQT
Experimental: To purify β-galactosidase, cultures of Halobacterium sp. NRC-1 (pRK42) (Karan et al., [2013]) were grown to late-log phase (OD600 ∼ 1.0), harvested, resuspended in binding buffer (20 mM phosphate buffer, 2.0 M NaCl, 10% (v/v) glycerol, 30 mM imidazole, pH 7.4), and lysed by sonication (Model 50 Sonic Dismembrator, ThermoFisher Scientific, Waltham, MA). Cell debris was removed by centrifugation (25,000g, 4°C, 10 min) in an Eppendorf 5417C centrifuge, and resulting crude extract was filtered through a 0.2 μm polyethersulfone filter (ThermoFisher Scientific, Waltham, MA). The proteins were purified by using Nickel HisTrap HP Columns (GE Healthcare, Chicago, IL), equilibrated, and washed with binding buffer, and eluted sequentially with 2 M NaCl, 100 mM phosphate buffer (pH 7.4) supplemented with 40, 80, 100, 200, and 500 mM imidazole.
Column fractions were tested for activity with o-nitrophenyl-β-D-galactopyranoside (ONPG, ThermoFisher Scientific, Waltham, MA). Active fractions were combined and protein concentration estimated by absorption at 280 nm with a Shimadzu UV-1601 spectrophotometer (Shimadzu Corporation, Kyoto, Japan). To confirm purity, the protein was analyzed by 10% SDS-PAGE followed by staining with Coomassie Blue (Millipore Sigma, Billerica, MA).
The inhibitory properties of Mg^2+ and ClO4^− ions on the β-galactosidase enzyme were tested through steady-state kinetics with a Shimadzu UV-1601 spectrophotometer. The assay solution containing 10 μg/mL enzyme was preincubated at 50°C followed by addition of ONPG at three different concentrations (1, 2.5, and 5 mM), and absorption was recorded at 420 nm. V0, the Michaelis constant (Km), as well as Vmax, were determined with UV Probe ver. 4.23 software (Shimadzu Corporation, Kyoto, Japan). kcat was calculated from given values of Km and Vmax. After the kinetic experiments were recorded, Lineweaver-Burk plots for each concentration of the inhibitory ion were used to determine whether the inhibition was competitive or noncompetitive. KI was determined by using Dixon plots, which use the reciprocal velocity of multiple steady-state kinetic experiments at multiple substrate and inhibitor concentrations to extrapolate the concentration of inhibitor that results in half-maximal inhibition (Yoshino and Murakami, [2009]). All experiments were run in triplicate and averages used for kinetic analysis.

[6] = system: Methanosarcina sp.; parameters: method as in Shcherbakova et al., 2015; conditions: 9.8 mM NaClO4; ref Shcherbakova et al., 2015; cited from earlier work
[7] = system: Halorubrum lacusprofundi; assay: Aerobic growth rate of Halorubrum lacusprofundi with added salts; assay type: cell-based
Experimental: as §1

[8] = system: Halobacterium sp. NRC-1; assay: Aerobic growth rate of Halobacterium sp. NRC-1 with added salts; assay type: cell-based; conditions: Mg2+ added
Experimental: as §1

[9] = system: methanogens; parameters: method as in Kral et al., 2004; conditions: grown on Mars soil simulant; ref Kral et al., 2004; cited from earlier work

Row | Compound | reduction in methanogenesis [1] | anaerobic growth with perchlorate [2] | anaerobic growth with perchlorate [3] | reduction in methanogenesis [4] | type of inhibition ([5]; listed as perchlorate) | type of inhibition ([5]; listed as perchlorate ions) | type of inhibition ([5]; listed as sodium perchlorate) | protein precipitation (salting-out) ([5]; at the concentrations tested) | reduction in methanogenesis [6] | highest concentration at which a measurable growth rate was recorded ([7]; ATCC 1682 medium) | inhibition of growth at 1.2 M ([7]; Halorubrum lacusprofundi, 1.2 M Mg2+ (MgCl2 added), read-out: decrease in growth rate) | inhibition of growth at 1.4 M ([7]; Halorubrum lacusprofundi, 1.4 M Mg2+ (MgCl2 added), read-out: decrease in growth rate) | concentration up to which a substantial growth rate is retained / no significantly deleterious effect ([7]; MgCl2 added, listed as Mg^2+) | concentration up to which no significantly deleterious effect on growth [8] | inhibition at 250000 µM ([5]; 0.5 M Na+ replaced with 0.25 M Mg2+ using magnesium chloride, read-out: decrease in catalytic efficiency) | type of inhibition [5] | type of inhibition ([5]; listed as Mg^2+) | concentration up to which methanogens metabolize [9]
1 | [O-][Cl+3]([O-])([O-])O [NaClO4, sodium perchlorate] | 80% | able to grow anaerobically | incapable of anaerobic growth | 80% | very weak noncompetitive inhibitor | noncompetitive inhibitor | noncompetitive inhibition | no protein precipitation | 80% |  |  |  |  |  |  |  |  | 
2 | [Mg+2] [MgCl2, magnesium chloride] |  |  |  |  |  |  |  |  |  | 1.4 M | 40% | 80% | 0.9 M and ~1 M | ~1 M | 70% | competitive inhibitor | competitive inhibition | 
3 | [O-][Cl+3]([O-])([O-])O [Mg(ClO4)2, magnesium perchlorate] |  |  |  |  |  |  |  |  |  |  |  |  |  |  |  | mixed inhibitor; also recorded: mixed inhibition |  | up to 0.06 M
